This note sets out measurements from patent US10689377B2 (Mirati Therapeutics, Inc., priority 2017, dated 2020).

Sequence of KRas G12C (P01116 1-188 isoform P01116-2 G12C): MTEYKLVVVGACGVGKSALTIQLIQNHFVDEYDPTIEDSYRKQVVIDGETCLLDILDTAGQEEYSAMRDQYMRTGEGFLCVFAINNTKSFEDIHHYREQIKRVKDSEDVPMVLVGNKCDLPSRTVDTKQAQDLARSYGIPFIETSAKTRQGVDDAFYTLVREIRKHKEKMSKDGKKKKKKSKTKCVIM

The assay addresses KRas G12C (Homo sapiens, UniProt P01116, G12C). Put plainly: Cellular inhibition of KRas G12C measured by Phospho-ERK in NCI-H358 cells. The assay is classed as cell-based. The note with it: pERK(Thr202/Tyr204) normalized with GAPDH, NCI-H358 cells, 3 hours; read-out: IC50. Summed up: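 Readout is pERK(Thr202/Tyr204) immunofluorescence normalized to GAPDH, expressed as percent of DMSO control and fitted with a 4-parameter curve for IC50. Attached NCI-H358 cells received compound for 3 hours in 0.5% DMSO, followed by fixation and methanol permeabilization.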
The IC50 is the point on the concentration scale where inhibition reaches its midpoint. With `C=CC(=O)N1CCN(c2nc(OC3CCN(C)CC3)nc3c2CCN(c2cc(O)cc4ccccc24)C3)CC1` [Example 22, 1-(4-(7-(3-hydroxynaphthalen-1-yl)-2-((1-methylpiperidin-4-yl)oxy)-5,6,7,8-tetrahydropyrido[3,4-d]pyrimidin-4-yl)piperazin-1-yl)prop-2-en-1-one], the IC50 is above 1000 nM. With `C=CC(=O)N1CCN(c2nc(OCCN3CCC[C@H](F)C3)nc3c2CCN(c2cc(O)cc4ccccc24)C3)CC1` [Example 111, (S)-1-(4-(2-(2-(3-fluoropiperidin-1-yl)ethoxy)-7-(3-hydroxynaphthalen-1-yl)-5,6,7,8-tetrahydropyrido[3,4-d]pyrimidin-4-yl)piperazin-1-yl)prop-2-en-1-one], the IC50 was 0.1 to 1000 nM. Turning to `C=CC(=O)N1CCN(c2nc(-c3cccc(CN4CCOCC4)c3)nc3c2CCN(c2cc(O)cc4ccccc24)C3)CC1` [Example 186], the IC50 was above 1000 nM. Consider `C=CC(=O)N1CCN(c2nc(OC[C@@H]3CCC(=O)N3)nc3c2CCN(c2cc(O)cc4ccccc24)C3)CC1` [Example 57, (S)-5-(((4-(4-acryloylpiperazin-1-yl)-7-(3-hydroxynaphthalen-1-yl)-5,6,7,8-tetrahydropyrido[3,4-d]pyrimidin-2-yl)oxy)methyl)pyrrolidin-2-one], for which the half-inhibitory concentration (IC50) was above 1000 nM.

As to `C=CC(=O)N1CCN(c2nc(OC[C@@H]3C[C@@H](OC)CN3CC)nc3c2CCN(c2cccc(Cl)c2C(F)(F)F)C3)C[C@@H]1CC#N` [Example 335, 2-[(2S)-4-[7-[3-chloro-2-(trifluoromethyl)phenyl]-2-[[(2S,4R)-1-ethyl-4-methoxy-pyrrolidin-2-yl]methoxy]-6,8-dihydro-5H-pyrido[3,4-d]pyrimidin-4-yl]-1-prop-2-enoyl-piperazin-2-yl]acetonitrile], the IC50 lay within 0.1 to 1000 nM. In the case of `C=CC(=O)N1CCN(c2nc(O[C@H](C)CN(C)C)nc3c2CCN(c2cc(O)cc4ccccc24)C3)[C@@H](C)C1` [Example 115, 1-((S)-4-(2-(((R)-1-(dimethylamino)propan-2-yl)oxy)-7-(3-hydroxynaphthalen-1-yl)-5,6,7,8-tetrahydropyrido[3,4-d]pyrimidin-4-yl)-3-methylpiperazin-1-yl)prop-2-en-1-one], the 50% inhibitory concentration (IC50) fell in the range of 0.1 to 1000 nM.

Turning to `C=CC(=O)N1CCN(c2nc(O[C@H](C)CN(C)C)nc3c2CCN(c2c(O)ccc(C)c2F)C3)CC1` [Example 84, (R)-1-(4-(2-((1-(dimethylamino)propan-2-yl)oxy)-7-(2-fluoro-6-hydroxy-3-methylphenyl)-5,6,7,8-tetrahydropyrido[3,4-d]pyrimidin-4-yl)piperazin-1-yl)prop-2-en-1-one], the half-inhibitory concentration (IC50) is above 1000 nM. Under `C=CC(=O)N1CCN(c2nc(OC[C@@H]3CCCN3C)nc3c2CCN(c2cnccc2C2CC2)C3)C[C@@H]1CC#N` [Example 352, 2-[(2S)-4-[7-(4-cyclopropyl-3-pyridyl)-2-[[(2S)-1-methylpyrrolidin-2-yl]methoxy]-6,8-dihydro-5H-pyrido[3,4-d]pyrimidin-4-yl]-1-prop-2-enoyl-piperazin-2-yl]acetonitrile] stands 0.1 to 1000 nM; under `CO[C@@H]1C[C@H](COc2nc3c(c(N4CCN(C(=O)/C=C/CO)[C@@H](CC#N)C4)n2)CCN(c2cccc4cccc(C)c24)C3)N(C)C1` [Example 523, 2-[(2S)-1-[(E)-4-hydroxybut-2-enoyl]-4-[2-[[(2R,4R)-4-methoxy-1-methyl-pyrrolidin-2-yl]methoxy]-7-(8-methyl-1-naphthyl)-6,8-dihydro-5H-pyrido[3,4-d]pyrimidin-4-yl]piperazin-2-yl]acetonitrile], 0.1 to 1000 nM; under `C=CC(=O)N1CCN(c2nc(OC[C@@H]3C[C@@H](F)CN3C)nc3c2CCN(c2cc(O)cc4ccccc24)C3)CC1` [Example 357, 1-[4-[2-[[(2S,4R)-4-fluoro-1-methyl-pyrrolidin-2-yl]methoxy]-7-(3-hydroxy-1-naphthyl)-6,8-dihydro-5H-pyrido[3,4-d]pyrimidin-4-yl]piperazin-1-yl]prop-2-en-1-one], 0.1 to 1000 nM. With `C=CC(=O)N1CCN(c2nc(OCCCN(C)C)nc3c2CCN(C(C)c2ccccc2)C3)CC1` (stereo not shown) [Example 25, 1-(4-(2-(3-(dimethylamino)propoxy)-7-(1-phenylethyl)-5,6,7,8-tetrahydropyrido[3,4-d]pyrimidin-4-yl)piperazin-1-yl)prop-2-en-1-one] the figure was above 1000 nM; with `C=CC(=O)N1CCN(c2nc(OC[C@@H]3CCCN3CC)nc3c2CCN(c2cccc4ccccc24)C3)C[C@@H]1CC#N` [Example 400, 2-((S)-1-acryloyl-4-(2-(((S)-1-ethylpyrrolidin-2-yl)methoxy)-7-(naphthalen-1-yl)-5,6,7,8-tetrahydropyrido[3,4-d]pyrimidin-4-yl)piperazin-2-yl)acetonitrile], 0.1 to 1000 nM. As to `C=CC(=O)N1CCN(c2nc(OC[C@@H]3CCCN3C)nc3c2CCN(c2c(C(F)(F)F)ccc4[nH]ncc24)C3)CC1` [Example 156, (S)-1-(4-(2-((1-methylpyrrolidin-2-yl)methoxy)-7-(5-(trifluoromethyl)-1H-indazol-4-yl)-5,6,7,8-tetrahydropyrido[3,4-d]pyrimidin-4-yl)piperazin-1-yl)prop-2-en-1-one], the IC50 is 0.1 to 1000 nM.

For the compound `C=CC(=O)N1CCN(c2nc(OC[C@@H]3CCCN3C)nc3c2CCN(c2cccc4cccc(C)c24)C3)CC1CC#N` (stereo partly drawn) [Example 309, 2-(1-acryloyl-4-(7-(8-methylnaphthalen-1-yl)-2-(((S)-1-methylpyrrolidin-2-yl)methoxy)-5,6,7,8-tetrahydropyrido[3,4-d]pyrimidin-4-yl)piperazin-2-yl)acetonitrile], the IC50 was 0.1 to 1000 nM.

In the case of `C/C=C/C(=O)N1CCN(c2nc(OC[C@@H]3CCCN3C)nc3c2CCN(c2cccc4ccccc24)C3)CC1CC#N` (stereo partly drawn) [Example 293, 2-[1-[(E)-but-2-enoyl]-4-[2-[[(2S)-1-methylpyrrolidin-2-yl]methoxy]-7-(1-naphthyl)-6,8-dihydro-5H-pyrido[3,4-d]pyrimidin-4-yl]piperazin-2-yl]acetonitrile], the IC50 lay in the range of 0.1 to 1000 nM.

On to `C=CC(=O)N1CCN(c2nc(N3CCN(C)CC3)nc3c2CCN(c2cc(O)cc4ccccc24)C3)CC1` [Example 12, 1-(4-(7-(3-hydroxynaphthalen-1-yl)-2-(4-methylpiperazin-1-yl)-5,6,7,8-tetrahydropyrido[3,4-d]pyrimidin-4-yl)piperazin-1-yl)prop-2-en-1-one], for which the IC50 was above 1000 nM.

As for `C=CC(=O)N1CCN(c2nc(OCCN(C)C)nc3c2CCN(c2cc(O)cc4ccccc24)C3)[C@@H](C)C1` [Example 116, (S)-1-(4-(2-(2-(dimethylamino)ethoxy)-7-(3-hydroxynaphthalen-1-yl)-5,6,7,8-tetrahydropyrido[3,4-d]pyrimidin-4-yl)-3-methylpiperazin-1-yl)prop-2-en-1-one], the half-maximal inhibitory concentration (IC50) lay within 0.1 to 1000 nM. Take `C=CC(=O)N1CCN(c2nc(OC[C@H]3CCC(C)(C)N3)nc3c2CCN(c2cc(O)cc4ccccc24)C3)CC1` [Example 174, (R)-1-(4-(2-((5,5-dimethylpyrrolidin-2-yl)methoxy)-7-(3-hydroxynaphthalen-1-yl)-5,6,7,8-tetrahydropyrido[3,4-d]pyrimidin-4-yl)piperazin-1-yl)prop-2-en-1-one]: the IC50 was above 1000 nM.

As to `C=CC(=O)N1CCN(c2nc(OC[C@@H]3CCCN3C)nc3c2CCN(c2ccccc2Cl)C3)CC1CC#N` (stereo partly shown) [Example 229], the IC50 fell in the range of 0.1 to 1000 nM. As to `C=C(C)C(=O)N1CCN(c2nc(OC[C@@H]3CCCN3C)nc3c2CCN(c2cccc4ccccc24)C3)CC1CC#N` (stereo partly drawn) [Example 261, 2-[1-(2-methylprop-2-enoyl)-4-[2-[[(2S)-1-methylpyrrolidin-2-yl]methoxy]-7-(1-naphthyl)-6,8-dihydro-5H-pyrido[3,4-d]pyrimidin-4-yl]piperazin-2-yl]acetonitrile], the 50% inhibitory concentration (IC50) was above 1000 nM.

Regarding `C=CC(=O)N1CCN(c2nc(OCCCN3C[C@@H]4C[C@H]3CO4)nc3c2CCN(c2cccc4cccc(Cl)c24)C3)C[C@@H]1CC#N` [Example 365, 2-[(2S)-4-[7-(8-chloro-1-naphthyl)-2-[3-[(1S,4S)-2-oxa-5-azabicyclo[2.2.1]heptan-5-yl]propoxy]-6,8-dihydro-5H-pyrido[3,4-d]pyrimidin-4-yl]-1-prop-2-enoyl-piperazin-2-yl]acetonitrile], the IC50 was 0.1 to 1000 nM. With `C=CC(=O)N1CCN(c2nc(OC[C@H]3C[C@@H](O)CN3C)nc3c2CCN(c2cccc(F)c2C(F)(F)F)C3)CC1CC#N` (stereo partly drawn) [Example 416, 2-(1-acryloyl-4-(7-(3-fluoro-2-(trifluoromethyl)phenyl)-2-(((2R,4R)-4-hydroxy-1-methylpyrrolidin-2-yl)methoxy)-5,6,7,8-tetrahydropyrido[3,4-d]pyrimidin-4-yl)piperazin-2-yl)acetonitrile] the figure was 0.1 to 1000 nM. As to `C=CC(=O)N1CCN(c2nc(OC[C@@H]3CCCN(C)C3)nc3c2CCN(c2cc(O)cc4ccccc24)C3)CC1` [Example 192, (R)-1-(4-(7-(3-hydroxynaphthalen-1-yl)-2-((1-methylpiperidin-3-yl)methoxy)-5,6,7,8-tetrahydropyrido[3,4-d]pyrimidin-4-yl)piperazin-1-yl)prop-2-en-1-one], the IC50 lay in the range of 0.1 to 1000 nM.

As to `C=CC(=O)N1CCN(c2nc(OC[C@@H]3C[C@@H](O)CN3C)nc3c2CCN(c2cccc4ccccc24)C3)C[C@@H]1CC#N` [Example 315, 2-[(2S)-4-[2-[[(2S,4R)-4-hydroxy-1-methyl-pyrrolidin-2-yl]methoxy]-7-(1-naphthyl)-6,8-dihydro-5H-pyrido[3,4-d]pyrimidin-4-yl]-1-prop-2-enoyl-piperazin-2-yl]acetonitrile], the 50% inhibitory concentration (IC50) was 0.1 to 1000 nM. For `C=CC(=O)N1CCN(c2nc(OC[C@@H]3CCCN3C)nc3c2CCN(c2cncc4ccccc24)C3)CC1CC#N` (stereo partly drawn) [Example 291, 2-[4-[7-(4-isoquinolyl)-2-[[(2S)-1-methylpyrrolidin-2-yl]methoxy]-6,8-dihydro-5H-pyrido[3,4-d]pyrimidin-4-yl]-1-prop-2-enoyl-piperazin-2-yl]acetonitrile], the concentration for half-maximal inhibition (IC50) fell in the range of 0.1 to 1000 nM.
